Experimental data as given in patent US9845285B2, “Crystalline solid and amorphous forms of (−)-halofenate and methods related thereto” (CymaBay Therapeutics, Inc., priority 2005, dated 2017).
Read-outs that look alike come from different tables or passages of the source.

Experiments:
cytochrome P450 2C9 = cytochrome P450 2C9 (Homo sapiens, UniProt P11712); conditions: cited from earlier work
[1] = cited from earlier work
physchem = conditions: for solubility: thermodynamic from solid
Experimental: Solubility studies were done on Form A in water and a variety of organic solvents. […] Solubility was also determined in these solvents at approximately 50° C.

[2] = Slurry interconversion studies in cyclohexane; assay type: physicochemical; conditions: for form resulting from slurry: cyclohexane, ambient temperature, 50° C. and 5° C.
Experimental: Samples of mixed forms by XRPD and pure forms were used for interconversion studies (see FIG. 37).
A saturated solution was prepared by vortexing and sonicating ca. 4 mg (−)-halofenate Form A in approximately 5-6 mL cyclohexane. This solution was filtered into a sample containing a mixture of ca. 40 mg Form A/Form D. The mixture was slurred on a rotating wheel at ambient temperature for approximately 6 days. The solids were recovered by vacuum filtration and vacuum dried at ambient temperature. The dry solids were analyzed by polarized light microscopy and XRPD.
The experiment was repeated using a shaker block at ca 50° C. using 2 mL of cyclohexane and slurried for ca. 3 days. and the supernatant was removed through decantation. Both the ambient and 50° C. experiments were repeated using pure forms A and E (ca. 20 mg of each form). The ambient experiment was also repeated with A, B, D, and E (ca. 10 mg of each form, slurred approximately 7 days) on a rotating wheel and on a magnetic stir plate in the refrigerator (ca 5° C.). When conversion was not deemed complete by XRPD solids were re-slurried in cyclohexane.
Interconversion studies were carried out in cyclohexane at ambient temperature 50° C. and 5° C. (see FIG. 37). The solvent was chosen because of the high solubility of the various forms in common organic solvents. Forms A, B, D and E were used as starting materials.

[3] = Solid form stability on drying, slurrying and storage; assay type: physicochemical; conditions: for conversion to other solid forms: upon drying, slurrying or over time
[4] = Automated moisture sorption/desorption; assay type: physicochemical; conditions: for solid form after moisture sorption/desorption: XRPD after desorption
Experimental: Moisture sorption/desorption data were collected on a VTI-SGA-100 Vapor Sorption Analyzer. Sorption and desorption data were collected over a range of 5% to 95% relative humidity (RH) at 10% RH intervals under a nitrogen purge. Samples were not dried prior to analysis. Equilibrium criteria used for analysis were less than 0.0100% weight change in 5 minutes with a maximum equilibration time of 3 hours if the weight criterion was not met. Data were not corrected for the initial moisture content of the samples. Sodium chloride and polyvinylpyrolidone were used as calibration standards. A sample was taken after desorption was complete and analyzed by powder X-ray diffraction for potential form change.

[5] = Thermal analysis (DSC/TGA), decomposition; assay type: physicochemical
Experimental: Differential scanning calorimetry (DSC) was performed using a TA Instruments 2920 differential scanning calorimeter. The sample was placed into an aluminum DSC pan and the weight accurately recorded. The pan was covered with a lid and then crimped. The sample cell was equilibrated at 25° C. and heated under a nitrogen purge at a rate of 10° C./min, up to a final temperature of 350° C. Indium metal was used as the calibration standard. Reported temperatures are at the transition maxima.
Thermographic analyses (TGA) was performed using a TA Instruments 2920 thermographic analyzer. The sample was placed into an aluminum sample pan and inserted into a TGA furnace. The sample was first equilibrated at 25° C., then heated under a nitrogen at a rate of 10° C./min, up to a final temperature of 350° C. Nickel and ALUMEL™ were used as calibration standards.

Sequence of cytochrome P450 2C9 (P11712 whole entry): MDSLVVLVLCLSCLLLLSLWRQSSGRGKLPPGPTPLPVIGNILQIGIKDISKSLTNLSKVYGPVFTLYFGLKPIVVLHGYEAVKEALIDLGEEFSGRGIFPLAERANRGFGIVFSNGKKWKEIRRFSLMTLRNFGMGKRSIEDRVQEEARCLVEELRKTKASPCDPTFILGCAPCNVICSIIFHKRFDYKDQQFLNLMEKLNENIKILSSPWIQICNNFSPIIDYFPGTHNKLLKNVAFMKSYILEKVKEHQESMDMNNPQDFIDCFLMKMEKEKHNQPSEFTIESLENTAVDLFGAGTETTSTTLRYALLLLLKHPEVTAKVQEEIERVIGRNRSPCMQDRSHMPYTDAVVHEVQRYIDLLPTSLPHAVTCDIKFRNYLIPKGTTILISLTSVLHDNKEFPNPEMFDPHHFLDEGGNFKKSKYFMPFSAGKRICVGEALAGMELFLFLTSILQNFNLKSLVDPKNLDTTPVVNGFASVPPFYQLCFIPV

Row | SMILES | form resulting from slurry [2] | hygroscopicity [4] | solid form after moisture sorption/desorption [4] | decomposition onset [5] | conversion to other solid forms [3] | also measured
1 | O=C(O)C(Oc1cccc(C(F)(F)F)c1)c1ccc(Cl)cc1 (racemic) [halofenic acid, 4-Chlorophenyl-(3-trifluoromethylphenoxy)-acetic acid] | – | – | – | – | – | inhibition of cytochrome P450 2C9 (cytochrome P450 2C9): inhibited
2 | CC(=O)NCCOC(=O)C(Oc1cccc(C(F)(F)F)c1)c1ccc(Cl)cc1 (racemic) [racemic halofenate, 2-acetamidoethyl 4-chlorophenyl-(3-trifluoromethylphenoxy)-acetate] | – | – | – | – | – | side effects ([1]; Friedberg et al., Clin. Res. 1986): gastrointestinal bleeding from stomach and peptic ulcers; drug-drug interactions ([1]; with agents such as warfarin sulfate (COUMADIN), Vesell and Passantanti 1972): some indications of drug-drug interactions
3 | O=C(O)C(Oc1cccc(C(F)(F)F)c1)c1ccc(Cl)cc1 (single isomer, unassigned; (-)) [(−)-enantiomer of halofenic acid] | – | – | – | – | – | ability to inhibit cytochrome P450 2C9 compared to the (+)-enantiomer (less active) (cytochrome P450 2C9; versus (+)-enantiomer of halofenic acid, U.S. Pat. No. 6,262,118): about twenty-fold
4 | CC(=O)NCCOC(=O)C(Oc1cccc(C(F)(F)F)c1)c1ccc(Cl)cc1 (single isomer, unassigned; (-)) [(−)-halofenate, (−)-2-acetamidoethyl 4-chlorophenyl-(3-trifluoromethylphenoxy)-acetate] | – | – | – | – | – | solubility (physchem; organic solvent or mixture): > 300 mg/mL; solubility (physchem; water): < 1 mg/mL
5 | CC(=O)NCCOC(=O)C(Oc1cccc(C(F)(F)F)c1)c1ccc(Cl)cc1 (stereo not shown) [Form A] | resulted in Form A | non-hygroscopic | essentially unchanged | approximately 200 °C | – | relative stability of crystal form ([2]; from slurry interconversion in cyclohexane): most stable crystal form; relative thermodynamic stability of crystalline solid form [3]: most thermodynamically stable; relative thermodynamic stability of crystalline solid form ([3]; listed as form A): most stable crystalline solid form; storage stability ([3]; long periods (months)): could be stored for long periods (months) without decomposition; weight gain ([4]; at 65% relative humidity (RH)): no weight gain; weight gain ([4]; at 65-95% RH): 1.6%; loss of weight gain in desorption study ([4]; desorption at 5% RH): All of the weight gain was lost; relative solubility in crystallization solvents (physchem; some crystallization solvents): lower solubility
6 | CC(=O)NCCOC(=O)C(Oc1cccc(C(F)(F)F)c1)c1ccc(Cl)cc1 (stereo not shown) [Form B] | resulted in Form A | – | – | – | could be converted to other solid forms upon drying or slurrying | –
7 | CC(=O)NCCOC(=O)C(Oc1cccc(C(F)(F)F)c1)c1ccc(Cl)cc1 (stereo not shown) [Form C] | – | – | – | – | could be converted to other forms upon drying or slurrying | conversion to other solid forms ([3]; listed as form C): over time conversion to crystal form E (below) occurred
8 | CC(=O)NCCOC(=O)C(Oc1cccc(C(F)(F)F)c1)c1ccc(Cl)cc1 (stereo not shown) [Form D] | resulted in Form A | non-hygroscopicity | remained Form D | approximately 225 °C | could be converted to Form A upon slurring | weight gain ([4]; at 95% RH): less than 0.1%
9 | CC(=O)NCCOC(=O)C(Oc1cccc(C(F)(F)F)c1)c1ccc(Cl)cc1 (stereo not shown) [Form E] | resulted in Form A | non-hygroscopicity | remained Form E | approximately 225 °C | could be converted to Form A upon slurring | weight gain ([4]; at 95% RH): less than 0.2%
